How the values were obtained:
human LTA4 hydrolase = human LTA4 hydrolase (Homo sapiens (Human), UniProt P09960); assay: LTA4H Enzyme assay (cleavage of Arg-AMC); type: biochemical; conditions: LTA4H 1 nM, Arg-AMC 50 μM, room temperature 1 h
Method: The compounds of the invention are assessed for the ability to interact with human LTA4 hydrolase in an enzymatic assay that measures the ability of the enzyme to cleave the peptide bond of arginyl-aminomethylcoumarin (Arg-AMC). LTA4H Enzyme (1 nM final), Arg-AMC substrate (50 μM final), and compound are combined in a reaction buffer (50 mM Tris-HCl (pH 7.5), 100 mM KCl, 0.5% bovine serum albumin) at room temperature for 1 h. The formation of product is assessed by measuring the fluorescence of aminomethylcoumarin product (excitation wavelength 380 nm/emission wavelength 460 nm).

[1] = tested on: synthesis of LTB4 in human whole blood; assay: human whole blood (HWB) assay, LTB4 production inhibition; type: cell-based; conditions: calcimycin 20 μM
Method: The compounds of the invention are additionally tested in a human whole blood (HWB) assay to determine their ability to inhibit the synthesis of LTB4 in a cellular system. Compounds are combined with heparinized human whole blood and incubated for 15 minutes at 37° C. Calcimycin (20 μM final, prepared in phosphate-buffered saline, pH 7.4) is then added and the mixture is incubated for another 30 minutes at 37° C. The samples are centrifuged for 5 min at low speed (1500×g) and the plasma layer is removed. Plasma LTB4 concentrations are then measured using an antibody-based homogenous time-resolved fluorescence method (CisBio, Bedford, Mass.). In general, the preferred potency range (IC50) of compounds in the HWB assay is between 10 nM to 10 μM, the more preferred potency range is 10 nM to 1 μM, and the most preferred potency range is 10 nM to 100 nM.

Chain of human LTA4 hydrolase (P09960 whole entry): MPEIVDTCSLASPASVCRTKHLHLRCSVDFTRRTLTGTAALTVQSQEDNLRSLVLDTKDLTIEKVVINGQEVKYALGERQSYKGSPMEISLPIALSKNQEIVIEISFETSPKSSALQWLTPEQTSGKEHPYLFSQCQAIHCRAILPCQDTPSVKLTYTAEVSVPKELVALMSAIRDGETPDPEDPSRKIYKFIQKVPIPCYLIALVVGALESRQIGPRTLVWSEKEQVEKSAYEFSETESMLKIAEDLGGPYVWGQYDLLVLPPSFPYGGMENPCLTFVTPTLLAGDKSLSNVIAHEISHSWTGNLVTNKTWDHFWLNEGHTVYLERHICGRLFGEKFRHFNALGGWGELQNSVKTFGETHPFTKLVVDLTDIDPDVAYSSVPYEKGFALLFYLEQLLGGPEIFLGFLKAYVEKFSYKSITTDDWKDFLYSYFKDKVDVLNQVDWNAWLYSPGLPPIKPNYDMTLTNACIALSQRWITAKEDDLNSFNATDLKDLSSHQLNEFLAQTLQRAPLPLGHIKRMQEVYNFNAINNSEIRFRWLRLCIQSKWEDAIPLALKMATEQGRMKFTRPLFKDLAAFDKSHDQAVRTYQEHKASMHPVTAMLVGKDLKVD

IC50 (human LTA4 hydrolase) [nM] | IC50 [1] [nM] | SMILES
40.1 |  | c1ccc2c(c1)OC[C@@H](c1ccc(CN3CCOCC3)cc1)O2 [Example 199, 4-{4-[(2R)-2,3-dihydro-1,4-benzodioxin-2-yl]benzyl}morpholine]
2.32 | 155 | CC(=O)N1CCC(N(C)Cc2ccc([C@H]3COc4ccccc4O3)cc2)CC1 [Example 14]
0.73 |  | O=S1(=O)CCN(Cc2ccc(C3COc4cccnc4O3)cc2)CC1 (centres unmarked) [Example 17, 3-{4-[(1,1-dioxidothiomorpholin-4-yl)methyl]phenyl}-2,3-dihydro[1,4]dioxino[2,3-b]pyridine]
 | 26 | CS(=O)(=O)NC1CCN(Cc2ccc([C@H]3COc4cccnc4O3)cc2)CC1 [Example 190, N-(1-{4-[(3S)-2,3-dihydro[1,4]dioxino[2,3-b]pyridin-3-yl]benzyl}piperidin-4-yl)methanesulfonamide]
 | 94.5 | CCCCN(Cc1ccc(C(=O)O)cc1)Cc1ccc([C@H]2COc3ccccc3O2)cc1 [Example 237]
 | 28 | CC(=O)NC1CCN(Cc2ccc([C@H]3COc4cccnc4O3)cc2)CC1 [Example 160, N-(1-{4-[(3S)-2,3-dihydro[1,4]dioxino[2,3-b]pyridin-3-yl)benzyl}piperidin-4-yl)acetamide]
1.14 |  | c1ccc2c(c1)OCC(c1ccc(CN3CCn4cnnc4C3)cc1)O2 (centres unmarked) [Example 16, 7-[4-(2,3-dihydro-1,4-benzodioxin-2-yl)benzyl]-5,6,7,8-tetrahydro[1,2,4,]triazolo[4,3-a]pyrazine]
 | 169 | O=C(O)[C@@H]1CCN(Cc2ccc([C@H]3COc4ccccc4O3)cc2)C1 [Example 214, (3R)-1-{4-[(2S)-2,3-dihydro-1,4-benzodioxin-2-yl]benzyl}pyrrolidine-3-carboxylic acid]
 | 94.6 | O=C(O)CCC1CCN(Cc2ccc([C@H]3COc4ccccc4O3)cc2)CC1 [Example 134, 3-(1-{4-[(2S)-2,3-dihydro-1,4-benzodioxin-2-yl]benzyl}piperidin-4-yl)propanoic acid]
 | 76 | CN(CCc1ccccn1)Cc1ccc([C@H]2COc3cccnc3O2)cc1 [Example 138, N-{4-[(3S)-2,3-dihydro[1,4]dioxino[2,3-b]pyridin-3-yl]benzyl}-N-methyl-2-(pyridin-2-yl)ethanamine]
 | 160 | CC(=O)NC1CCN(Cc2ccc([C@H]3COc4ccccc4O3)cc2)CC1 [Example 178, N-(1-(4-[(2S)-2,3-dihydro-1,4-benzodioxin-2-yl]benzyl}piperidin-4-yl)acetamide]
 | 151 | O=C(O)C[C@@H]1CCCN(Cc2ccc([C@H]3COc4ccccc4O3)cc2)C1 [Example 183, [(3S)-1-{4-[(2S)-2,3-dihydro-1,4-benzodioxin-2-yl]benzyl)piperidin-3-yl]acetic acid]
 | 32.8 | CCN(CC)Cc1ccc([C@H]2COc3cccnc3O2)cc1 [Example 141, N-{4-[(3S)-2,3-dihydro[1,4]dioxino[2,3-b]pyridin-3-yl]benzyl}-N-ethylanamine]
 | 33.5 | CC(=O)N(C)C1CCN(Cc2ccc([C@H]3COc4ccccc4O3)cc2)C1 (stereo partly drawn) [Example 83, N-(1-{4-[(2S)-2,3-dihydro-1,4-benzodioxin-2-yl]benzyl}pyrrolidin-3-yl)-N-methylacetamide]
 | 95.4 | O=C1CCCN1CC1CCN(Cc2ccc([C@H]3COc4ccccc4O3)cc2)CC1 [Example 99, 1-[(1-{4-[(2S)-2,3-dihydro-1,4-benzodioxin-2-yl]benzyl}piperidin-4-yl)methyl]pyrrolidin-2-one]
 | 72.8 | c1cnc2c(c1)OC[C@H](c1ccc(CNC3CCC3)cc1)O2 [Example 173, N-{4-[(3S)-2,3-dihydro[1,4]dioxino[2,3-b]pyridin-3-yl]benzyl}cyclobutanamine]
 | 159 | CN1CCC2(CCN(Cc3ccc([C@H]4COc5ccccc5O4)cc3)CC2)C1=O [Example 121, 8-{4-[(2S)-2,3-dihydro-1,4-benzodioxin-2-yl]benzyl}-2-methyl-2,8-diazaspiro[4.5]decan-1-one]
 | 250 | O=C(O)C1CCN(Cc2ccc([C@H]3COc4ccccc4O3)cc2)C1 (stereo partly drawn) [Example 61, 1-{4-[(2S)-2,3-dihydro-1,4-benzodioxin-2-yl]benzyl}pyrrolidine-3-carboxylic acid]
0.77 |  | c1cnc2c(c1)OCC(c1ccc(CN3CCCC3)cc1)O2 (centres unmarked) [Example 15, 3-[4-(pyrrolidin-1-ylmethyl)phenyl]-2,3-dihydro[1,4]dioxin[2,3-b]pyridine]
 | 177 | NC(=O)NC1CCN(Cc2ccc([C@H]3COc4cccnc4O3)cc2)CC1 [Example 187, 1-(1-{4-[(3S)-2,3-dihydro[1,4]dioxino[2,3-b]pyridin-3-yl]benzyl}piperidin-4-yl)urea]
 | 39 | COC1CCN(Cc2ccc([C@H]3COc4cccnc4O3)cc2)C1 (stereo partly drawn) [Example 168, (3S)-3-{4-[(3-methoxypyrrolidin-1-yl)methyl]phenyl}-2,3-dihydro[1,4]dioxino[2,3-b]pyridine]

SMILES | IC50 (human LTA4 hydrolase) [nM] | IC50 [1] [nM]
c1cnc2c(c1)OC[C@H](c1ccc(CN3[C@H]4CC[C@@H]3CC4)cc1)O2 [Example 145, (3S)-3-{4-[(1s,4s)-7-azabicyclo[2.2.1]hept-7-ylmethyl]phenyl}-2,3-dihydro[1,4]dioxino[2,3-b]pyridine] |  | 28.4

Source: patent US11957671B2, “Benzodioxane modulators of leukotriene A4 hydrolase (LTA4H) for prevention and treatment of aging-associated diseases” (Alkahest, Inc., priority 2021, dated 2024)
